Assay: xn = mol fraction of the nth substance listed

C1N2CN3CN1CN(C2)C3 + O
101 kPa
Details	viscosity [mPa·s]
293.15 K, x1 = 0.003601	1.028
293.15 K, x1 = 0.007176	1.072
293.15 K, x1 = 0.01043	1.127
293.15 K, x1 = 0.01396	1.205
293.15 K, x1 = 0.01775	1.308
297.35 K, x1 = 0.022	1.515
297.35 K, x1 = 0.031	1.736
297.35 K, x1 = 0.041	2.087
297.55 K, x1 = 0.052	2.537
298.15 K, x1 = 0.003601	0.928
298.15 K, x1 = 0.007176	0.979
298.15 K, x1 = 0.01043	1.033
298.15 K, x1 = 0.01396	1.101
298.15 K, x1 = 0.01775	1.185
300.15 K, x1 = 0.003601	0.83
300.15 K, x1 = 0.007176	0.874
300.15 K, x1 = 0.01043	0.922
300.15 K, x1 = 0.01396	0.982
300.15 K, x1 = 0.01775	1.058
302.15 K, x1 = 0.022	1.389
302.35 K, x1 = 0.031	1.627
302.35 K, x1 = 0.052	2.222
302.75 K, x1 = 0.041	1.832
305.15 K, x1 = 0.003601	0.74
305.15 K, x1 = 0.007176	0.777
305.15 K, x1 = 0.01043	0.822
305.15 K, x1 = 0.01396	0.884
305.15 K, x1 = 0.01775	0.967
306.95 K, x1 = 0.031	1.483
307.35 K, x1 = 0.022	1.321
307.35 K, x1 = 0.041	1.689
307.35 K, x1 = 0.052	2.056
311.95 K, x1 = 0.022	1.251
312.15 K, x1 = 0.031	1.375
312.15 K, x1 = 0.041	1.595
312.15 K, x1 = 0.052	1.864

C=CC(C)O (stereo not given) + O
viscosity [mPa·s], 101.32 kPa
Details	x1 = 0.1003	x1 = 0.2	x1 = 0.3004	x1 = 0.4	x1 = 0.5013	x1 = 0.601	x1 = 0.7012	x1 = 0.8046	x1 = 0.9031
308.15 K	1.553	1.858	1.854	1.765	1.682	1.566	1.457	1.387	1.331
313.15 K	1.347	1.617	1.612	1.535	1.461	1.369	1.28	1.231	1.171
318.15 K	1.189	1.405	1.404	1.345	1.281	1.209	1.13	1.08	1.044
323.15 K	1.049	1.243	1.24	1.187	1.138	1.078	1.007	0.9691	0.9323

CCCC(=O)[O-].[Na+] + O
298.15 K, 101.33 kPa
Details	viscosity [mPa·s]
x1 = 0.008927	1.136
x1 = 0.0177	1.436
x1 = 0.02631	1.793
x1 = 0.03478	2.235

CO/N=C(\C(=O)N[C@@H]1C(=O)N2C(C(=O)[O-])=C(CSc3nc(C)c(CC(=O)[O-])s3)CS[C@H]12)c1csc(N)n1.[Na+].[Na+] + O
Details	viscosity [mPa·s]
293.15 K, 101 kPa, x1 = 0.002695	1.285

COCCOCCOC + O
Details	viscosity [mPa·s]
298.15 K, 101 kPa, x1 = 0.021	1.36
298.15 K, 101 kPa, x1 = 0.04611	2.03
298.15 K, 101 kPa, x1 = 0.08173	2.84
298.15 K, 101 kPa, x1 = 0.135	3.11
298.15 K, 101.32 kPa, x1 = 0.0104	1.16
298.15 K, 101.32 kPa, x1 = 0.0199	1.362
298.15 K, 101.32 kPa, x1 = 0.0677	2.567
298.15 K, 101.32 kPa, x1 = 0.1	2.959
298.15 K, 101.32 kPa, x1 = 0.1492	3.175
298.15 K, 101.32 kPa, x1 = 0.1978	2.936
298.15 K, 101.32 kPa, x1 = 0.2959	2.342
298.15 K, 101.32 kPa, x1 = 0.4011	1.881
298.15 K, 101.32 kPa, x1 = 0.4988	1.552
298.15 K, 101.32 kPa, x1 = 0.577	1.398
298.15 K, 101.32 kPa, x1 = 0.8569	1.084
298.15 K, 101.33 kPa, x1 = 0.0091	1.139
298.15 K, 101.33 kPa, x1 = 0.0188	1.403
298.15 K, 101.33 kPa, x1 = 0.0295	1.691
298.15 K, 101.33 kPa, x1 = 0.051	2.246
298.15 K, 101.33 kPa, x1 = 0.0854	2.993
298.15 K, 101.33 kPa, x1 = 0.1194	3.328
298.15 K, 101.33 kPa, x1 = 0.1604	3.232
298.15 K, 101.33 kPa, x1 = 0.2099	2.993
298.15 K, 101.33 kPa, x1 = 0.2597	2.661
298.15 K, 101.33 kPa, x1 = 0.3028	2.389
298.15 K, 101.33 kPa, x1 = 0.3461	2.153
298.15 K, 101.33 kPa, x1 = 0.3843	1.982
298.15 K, 101.33 kPa, x1 = 0.4327	1.791
298.15 K, 101.33 kPa, x1 = 0.4651	1.691
298.15 K, 101.33 kPa, x1 = 0.5196	1.536
298.15 K, 101.33 kPa, x1 = 0.608	1.356
298.15 K, 101.33 kPa, x1 = 0.659	1.272
298.15 K, 101.33 kPa, x1 = 0.7695	1.145
298.15 K, 101.33 kPa, x1 = 0.8171	1.103
298.15 K, 101.33 kPa, x1 = 0.8712	1.066
298.15 K, 101.33 kPa, x1 = 0.9453	1.024
303.15 K, 101 kPa, x1 = 0.021	1.19
303.15 K, 101 kPa, x1 = 0.04611	1.71
303.15 K, 101 kPa, x1 = 0.08173	2.35
303.15 K, 101 kPa, x1 = 0.135	2.62
313.15 K, 101 kPa, x1 = 0.021	0.94
313.15 K, 101 kPa, x1 = 0.04611	1.27
313.15 K, 101 kPa, x1 = 0.08173	1.75
313.15 K, 101 kPa, x1 = 0.135	1.93
323.15 K, 101 kPa, x1 = 0.021	0.78
323.15 K, 101 kPa, x1 = 0.04611	1.01
323.15 K, 101 kPa, x1 = 0.08173	1.34
323.15 K, 101 kPa, x1 = 0.135	1.46
